Bridge positions count the residues as written; N and C are the ends. Square brackets hold non-standard residues; d marks the D form. Peptide text beside a SMILES is read from it. * marks the point of attachment. ξ: configuration not given here. Phe(3-CF3) = N[C@@H](Cc1cccc(C(F)(F)F)c1)C(=O)O; Ala(morpholin-4-yl) = N[C@@H](CN1CCOCC1)C(=O)O; Phe(4-COOH) = N[C@@H](Cc1ccc(C(=O)O)cc1)C(=O)O; Bip = N[C@@H](Cc1ccc(-c2ccccc2)cc1)C(=O)O; Phe(3-CN) = N#Cc1cccc(C[C@H](N)C(=O)O)c1; Phe(3-OMe) = COc1cccc(C[C@H](N)C(=O)O)c1; Phe(3-F) = N[C@@H](Cc1cccc(F)c1)C(=O)O; Phe(3-Me) = Cc1cccc(C[C@H](N)C(=O)O)c1; 2Nal = N[C@@H](Cc1ccc2ccccc2c1)C(=O)O; Val(3-OH) = CC(C)(O)[C@H](N)C(=O)O; aIle = CC[C@@H](C)[C@H](N)C(=O)O; 3Pal = N[C@@H](Cc1cccnc1)C(=O)O; 2Thi = N[C@@H](Cc1cccs1)C(=O)O; Cha = N[C@@H](CC1CCCCC1)C(=O)O; Cit = NC(=O)NCCC[C@H](N)C(=O)O; Ile(3ξ) = CCC(C)[C@H](N)C(=O)O; Thr(3ξ) = CC(O)[C@H](N)C(=O)O; Carboxymethyl = O=C(O)C*; NMeA = CN[C@@H](C)C(=O)O; Orn = NCCC[C@H](N)C(=O)O; Pra = C#CC[C@H](N)C(=O)O; Dab = NCC[C@H](N)C(=O)O; Dap = NC[C@H](N)C(=O)O; Ac3c = NC1(C(=O)O)CC1; ξV = CC(C)C(N)C(=O)O

The target in the first experiment is T1, PE-labeled human PD-L1-Ig binding to Jurkat cell line over-expressing human PD-1 (Jurkat-PD-1) (Homo sapiens, UniProt Q15116).
T1 construct: expressed in transfected cells; host or cells: Jurkat
T1 sequence (Q15116 25-288): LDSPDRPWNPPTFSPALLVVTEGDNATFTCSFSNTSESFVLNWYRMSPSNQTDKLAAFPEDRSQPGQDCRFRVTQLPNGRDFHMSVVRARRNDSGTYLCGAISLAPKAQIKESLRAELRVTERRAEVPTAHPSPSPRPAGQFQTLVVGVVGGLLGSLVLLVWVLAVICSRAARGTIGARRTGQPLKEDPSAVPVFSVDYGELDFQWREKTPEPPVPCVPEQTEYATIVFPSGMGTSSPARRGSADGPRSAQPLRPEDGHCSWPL
The experiment is described as follows: Jurkat-PD-1 Cell Binding High-Content Screening Assay (CBA): Method 1. The following applies: Jurkat-PD-1 cells, PE-labeled PD-L1-Ig; μM; read-out: CBA Method 1 μM.
As to `Cc1cccc(C[C@@H]2NC(=O)[C@H](CC(=O)O)NC(=O)[C@H](Cc3ccc(OCC(=O)O)cc3)NC(=O)[C@H](CN3CCOCC3)NC(=O)CSC[C@@H](C(=O)N[C@@H](CCN)C(N)=O)NC(=O)[C@H](CCCN)NC(=O)[C@H](C(C)C)NC(=O)[C@H](Cc3ccc4ccccc4c3)NC(=O)[C@H](CCN)NC(=O)[C@@H](CC(C)C)NC(=O)[C@H](C)N(C)C(=O)[C@H](CCC(N)=O)NC(=O)[C@H](Cc3ccc(-c4ccccc4)cc3)NC(=O)[C@H](Cc3ccc(C(=O)O)cc3)NC2=O)c1` [Example 5044] ({CH2CO}-[Ala(morpholin-4-yl)]Y(Carboxymethyl)D[Phe(3-Me)][Phe(4-COOH)][Bip]Q[NMeA][dL][Dab][2Nal]V[Orn]C[Dab]-NH2; thioether N-14), the IC50 came to 0.131 µM.

Still in this experiment, the particulars now being: Jurkat-hPD-1 cells, PE-labeled PD-L1-Ig 20 nM final; read-out: Jurkat HPDL1 PD1 IC50 (uM) (Method 1).
Take `CC(C)C[C@H]1NC(=O)[C@H](C)N(C)C(=O)[C@H](CCCNC(N)=O)NC(=O)[C@H](Cc2ccc(-c3ccccc3)cc2)NC(=O)[C@H](C(C)C)NC(=O)[C@H](Cc2c[nH]c3ccccc23)NC(=O)[C@H](CC(=O)O)NC(=O)[C@H](Cc2ccc(O)cc2)NC(=O)[C@H](CN)NC(=O)CSC[C@@H](C(=O)N[C@@H](C)C(N)=O)NC(=O)[C@H]([C@@H](C)O)NC(=O)[C@H](C(C)C)NC(=O)[C@H](CC2CCCCC2)NC(=O)[C@H](CCCNC(=N)N)NC1=O` [Compound 1503] ({CH2CO}-[Dap]YDWV[Bip][Cit][NMeA][dL]R[Cha]VTCA-NH2; thioether N-14): the IC50 worked out at 0.01 µM.

On to `Cc1cccc(C[C@@H]2NC(=O)[C@H](CC(=O)O)NC(=O)[C@H](Cc3ccc(OCC(=O)O)cc3)NC(=O)[C@H]([C@@H](C)O)NC(=O)CSC[C@@H](C(=O)NC3(C(N)=O)CC3)NC(=O)[C@H](CO)NC(=O)[C@H](C(C)C)NC(=O)[C@H](CC3CCCCC3)NC(=O)[C@H](CCN)NC(=O)[C@@H](CC(C)C)NC(=O)[C@H](C)N(C)C(=O)[C@H](Cc3ccc(OCC(=O)O)cc3)NC(=O)[C@H](Cc3ccc(-c4ccccc4)cc3)NC(=O)[C@H](Cc3ccc(OCC(=O)O)cc3)NC2=O)c1` [Compound 1862] ({CH2CO}-TY(Carboxymethyl)D[Phe(3-Me)]Y(Carboxymethyl)[Bip]Y(Carboxymethyl)[NMeA][dL][Dab][Cha]VSC[Ac3c]-NH2; thioether N-14), for which the IC50 was found to be 0.04 µM.

On to `CCNC(=O)[C@H](CCN)NC(=O)[C@@H]1CSCC(=O)N[C@@H](Cc2cccs2)C(=O)N[C@@H](Cc2cccc(C#N)c2)C(=O)N[C@@H](CC(=O)O)C(=O)N[C@@H](Cc2cccc(C)c2)C(=O)N[C@@H](Cc2cccc(F)c2)C(=O)N[C@@H](Cc2ccc(-c3ccccc3)cc2)C(=O)N[C@@H](C(C)C)C(=O)N(C)[C@@H](C)C(=O)N[C@H](CC(C)C)C(=O)N[C@@H](CCN)C(=O)N[C@@H](CC2CCCCC2)C(=O)N[C@@H](C(C)(C)O)C(=O)N[C@@H](CO)C(=O)N1` [Compound 1840] ({CH2CO}-[2Thi][Phe(3-CN)]D[Phe(3-Me)][Phe(3-F)][Bip]V[NMeA][dL][Dab][Cha][Val(3-OH)]SC[Dab]-NHEt; thioether N-14), for which the IC50 amounted to 0.05 µM.

Regarding `COc1cccc(C[C@@H]2NC(=O)[C@H](CN)NC(=O)CSC[C@@H](C(=O)NCC(N)=O)NC(=O)[C@H](CO)NC(=O)[C@H](C(C)C)NC(=O)[C@H](CC(C)C)NC(=O)[C@H](CC(N)=O)NC(=O)[C@@H](CC(C)C)NC(=O)[C@H](C)N(C)C(=O)[C@H](C(C)C)NC(=O)[C@H](Cc3ccc(-c4ccccc4)cc3)NC(=O)[C@H](CC(C)C)NC(=O)[C@H](Cc3c[nH]c4ccccc34)NC(=O)[C@H](CC(=O)O)NC2=O)c1` [Compound 1522] ({CH2CO}-[Dap][Phe(3-OMe)]DWL[Bip]V[NMeA][dL]NLVSCG-NH2; thioether N-14), the IC50 was 0.05 µM.

As to `CC(C)C[C@H]1NC(=O)[C@H](C)N(C)C(=O)[C@H](CCC(N)=O)NC(=O)[C@H](Cc2ccc(-c3ccccc3)cc2)NC(=O)[C@H](Cc2ccc(C(=O)O)cc2)NC(=O)[C@H](Cc2cccc(C(F)(F)F)c2)NC(=O)[C@H](CC(=O)O)NC(=O)[C@H](Cc2ccc(OCC(=O)O)cc2)NC(=O)[C@H](CN2CCOCC2)NC(=O)CSC[C@@H](C(=O)N[C@@H](CCN)C(N)=O)NC(=O)[C@H](CCCN)NC(=O)[C@H](C(C)C)NC(=O)[C@H](CC2CCCCC2)NC(=O)[C@H](CCN)NC1=O` [Example 2272] ({CH2CO}-[Ala(morpholin-4-yl)]Y(Carboxymethyl)D[Phe(3-CF3)][Phe(4-COOH)][Bip]Q[NMeA][dL][Dab][Cha]V[Orn]C[Dab]-NH2; thioether N-14), the IC50 worked out at 0.11 µM.

As for `Cc1cccc(C[C@@H]2NC(=O)[C@H](CC(=O)O)NC(=O)[C@H](Cc3ccc(OCC(=O)O)cc3)NC(=O)[C@H](CN)NC(=O)CSC[C@@H](C(=O)N[C@@H](C)C(N)=O)NC(=O)[C@H]([C@@H](C)O)NC(=O)[C@H](C(C)C)NC(=O)[C@H](CC(C)C)NC(=O)[C@H](CCN)NC(=O)[C@@H](CC(C)C)NC(=O)[C@H](C)N(C)C(=O)[C@H](CCCNC(N)=O)NC(=O)[C@H](Cc3ccc(-c4ccccc4)cc3)NC(=O)[C@H](C(C)C)NC2=O)c1` [Compound 1437] ({CH2CO}-[Dap]Y(Carboxymethyl)D[Phe(3-Me)]V[Bip][Cit][NMeA][dL][Dab]LVTCA-NH2; thioether N-14), the IC50 turned out to be 0.02 µM.

With `Cc1cccc(C[C@@H]2NC(=O)[C@H](CC(=O)O)NC(=O)[C@H](Cc3ccc(OCC(=O)O)cc3)NC(=O)[C@H](Cc3ccc(OCC(=O)O)cc3)NC(=O)CSC[C@@H](C(N)=O)NC(=O)[C@H](CCC(N)=O)NC(=O)[C@H](C(C)C)NC(=O)[C@H](CC3CCCCC3)NC(=O)[C@H](CCN)NC(=O)[C@@H](CC(C)C)NC(=O)[C@H](C)N(C)C(=O)[C@H](Cc3ccc(OCC(=O)O)cc3)NC(=O)[C@H](Cc3ccc(-c4ccccc4)cc3)NC(=O)[C@H](Cc3ccc(OCC(=O)O)cc3)NC2=O)c1` [Compound 1655] ({CH2CO}-Y(Carboxymethyl)Y(Carboxymethyl)D[Phe(3-Me)]Y(Carboxymethyl)[Bip]Y(Carboxymethyl)[NMeA][dL][Dab][Cha]VQC-NH2; thioether N-14), the IC50 was found to be 0.03 µM.

On to `C#CC[C@H](NC(=O)[C@@H](C)NC(=O)[C@@H]1CSCC(=O)N[C@@H](Cc2ccc(OCC(=O)O)cc2)C(=O)N[C@@H](Cc2ccc(C(=O)O)cc2)C(=O)N[C@@H](CC(=O)O)C(=O)N[C@@H](Cc2c[nH]c3ccccc23)C(=O)N[C@@H](CC(C)C)C(=O)N[C@@H](Cc2ccc(-c3ccccc3)cc2)C(=O)N[C@@H](C(C)C)C(=O)N(C)[C@@H](C)C(=O)N[C@H](CC(C)C)C(=O)N[C@@H](CCN)C(=O)N[C@@H](CC2CCCCC2)C(=O)N[C@@H](C(C)(C)O)C(=O)N[C@@H](CO)C(=O)N1)C(N)=O` [Compound 1940] ({CH2CO}-Y(Carboxymethyl)[Phe(4-COOH)]DWL[Bip]V[NMeA][dL][Dab][Cha][Val(3-OH)]SC[dA][Pra]-NH2; thioether N-14), for which the IC50 came out at 0.02 µM.

`CCC(C)[C@@H]1NC(=O)[C@H](Cc2ccc(-c3ccccc3)cc2)NC(=O)[C@H](C(C)C)NC(=O)[C@H](Cc2c[nH]c3ccccc23)NC(=O)[C@H](CC(=O)O)NC(=O)[C@H](Cc2cccc(OC)c2)NC(=O)[C@H](Cc2cccnc2)NC(=O)CSC[C@@H](C(=O)NCC(=O)N[C@@H](CN)C(=O)O)NC(=O)[C@H](C(C)O)NC(=O)[C@H](C(C)C)NC(=O)[C@H](CC2CCCCC2)NC(=O)[C@H](CC(N)=O)NC(=O)[C@@H](CC(C)C)NC(=O)[C@H](C)N(C)C1=O` (stereo partly drawn) [Compound 2006] ({CH2CO}-[3Pal][Phe(3-OMe)]DWV[Bip][Ile(3ξ)][NMeA][dL]N[Cha]V[Thr(3ξ)]CG[Dap]-OH; thioether N-14): the IC50 was found to be 0.04 µM.

Regarding `Cc1cccc(C[C@@H]2NC(=O)[C@H](CC(=O)O)NC(=O)[C@H](Cc3ccc(OCC(=O)O)cc3)NC(=O)[C@H](CN)NC(=O)CSC[C@@H](C(N)=O)NC(=O)[C@H]([C@@H](C)O)NC(=O)[C@H](C(C)C)NC(=O)[C@H](CC3CCCCC3)NC(=O)[C@H](CCN)NC(=O)[C@@H](CC(C)C)NC(=O)[C@H](C)N(C)C(=O)[C@H](Cc3ccc(OCC(=O)O)cc3)NC(=O)[C@H](Cc3ccc(-c4ccccc4)cc3)NC(=O)[C@H](Cc3ccc(OCC(=O)O)cc3)NC2=O)c1` [Compound 1650] ({CH2CO}-[Dap]Y(Carboxymethyl)D[Phe(3-Me)]Y(Carboxymethyl)[Bip]Y(Carboxymethyl)[NMeA][dL][Dab][Cha]VTC-NH2; thioether N-14), the IC50 was 0.08 µM.

Consider `CC[C@@H](C)[C@@H]1NC(=O)[C@H](Cc2ccc(-c3ccccc3)cc2)NC(=O)[C@H](CC(C)C)NC(=O)[C@H](Cc2c[nH]c3ccccc23)NC(=O)[C@H](CC(=O)O)NC(=O)[C@H](Cc2ccc(C(=O)O)cc2)NC(=O)[C@H](Cc2ccc(OCC(=O)O)cc2)NC(=O)CSC[C@@H](C(=O)N[C@@H](CCCCN)C(N)=O)NC(=O)[C@H](Cc2cnc[nH]2)NC(=O)C(C(C)C)NC(=O)[C@H](CC(C)C)NC(=O)[C@H](CC(N)=O)NC(=O)[C@@H](CC(C)C)NC(=O)[C@H](C)N(C)C1=O` (stereo partly drawn) [Compound 2104] ({CH2CO}-Y(Carboxymethyl)[Phe(4-COOH)]DWL[Bip][aIle][NMeA][dL]NL[ξV]HCK-NH2; thioether N-14), for which the IC50 came out at 0.05 µM.

`CC(C)C[C@@H]1NC(=O)[C@H](Cc2c[nH]c3ccccc23)NC(=O)[C@H](CC(=O)O)NC(=O)[C@H](Cc2ccc(O)cc2)NC(=O)[C@H](Cc2ccccc2)NC(=O)CSC[C@@H](C(=O)N[C@@H](C)C(N)=O)NC(=O)[C@H]([C@@H](C)O)NC(=O)[C@H](CCCN)NC(=O)[C@H](CC(C)C)NC(=O)[C@H](CC(N)=O)NC(=O)[C@@H](C)NC(=O)[C@H](C)N(C)C(=O)[C@H](C(C)C)NC(=O)[C@H](Cc2ccc(-c3ccccc3)cc2)NC1=O` [Compound 1533] ({CH2CO}-FYDWL[Bip]V[NMeA][dA]NL[Orn]TCA-NH2; thioether N-14): the IC50 is 0.15 µM.

Consider `CC(C)C[C@@H]1NC(=O)[C@H](Cc2c[nH]c3ccccc23)NC(=O)[C@H](CC(=O)O)NC(=O)[C@H](Cc2ccc(OCC(=O)O)cc2)NC(=O)[C@H](Cc2ccccc2)NC(=O)CSC[C@@H](C(=O)N[C@@H](CC(N)=O)C(N)=O)NC(=O)[C@H](CO)NC(=O)[C@H](C(C)C)NC(=O)[C@H](CC(C)C)NC(=O)[C@H](CCN)NC(=O)[C@@H](CC(C)C)NC(=O)[C@H](C)N(C)C(=O)[C@H](Cc2cnc[nH]2)NC(=O)[C@H](Cc2ccc(-c3ccccc3)cc2)NC1=O` [Compound 2096] ({CH2CO}-FY(Carboxymethyl)DWL[Bip]H[NMeA][dL][Dab]LVSCN-NH2; thioether N-14), for which the IC50 was determined as 0.04 µM.

(Values after patent publication US20240409585A1, “MACROCYCLIC IMMUNOMODULATORS” (priority 2021, published 2024).)
